# In ChEMBL document CHEMBL4828765, “Design and Development of a Chemical Probe for Pseudokinase Ca2+/calmodulin-Dependent Ser/Thr Kinase” (J Med Chem, 2021):
# Experiments:
# [1] = target: T1, Tyrosine-protein kinase receptor TYRO3 (Homo sapiens, UniProt Q06418); assay: Inhibition of tracer K5 binding to NanoLuc-fused TYRO3 (unknown origin) expressed in HEK293T cells measured after 2 hrs by NanoBRET assay; assay type: cell-based
# T1 sequence (Q06418 whole entry): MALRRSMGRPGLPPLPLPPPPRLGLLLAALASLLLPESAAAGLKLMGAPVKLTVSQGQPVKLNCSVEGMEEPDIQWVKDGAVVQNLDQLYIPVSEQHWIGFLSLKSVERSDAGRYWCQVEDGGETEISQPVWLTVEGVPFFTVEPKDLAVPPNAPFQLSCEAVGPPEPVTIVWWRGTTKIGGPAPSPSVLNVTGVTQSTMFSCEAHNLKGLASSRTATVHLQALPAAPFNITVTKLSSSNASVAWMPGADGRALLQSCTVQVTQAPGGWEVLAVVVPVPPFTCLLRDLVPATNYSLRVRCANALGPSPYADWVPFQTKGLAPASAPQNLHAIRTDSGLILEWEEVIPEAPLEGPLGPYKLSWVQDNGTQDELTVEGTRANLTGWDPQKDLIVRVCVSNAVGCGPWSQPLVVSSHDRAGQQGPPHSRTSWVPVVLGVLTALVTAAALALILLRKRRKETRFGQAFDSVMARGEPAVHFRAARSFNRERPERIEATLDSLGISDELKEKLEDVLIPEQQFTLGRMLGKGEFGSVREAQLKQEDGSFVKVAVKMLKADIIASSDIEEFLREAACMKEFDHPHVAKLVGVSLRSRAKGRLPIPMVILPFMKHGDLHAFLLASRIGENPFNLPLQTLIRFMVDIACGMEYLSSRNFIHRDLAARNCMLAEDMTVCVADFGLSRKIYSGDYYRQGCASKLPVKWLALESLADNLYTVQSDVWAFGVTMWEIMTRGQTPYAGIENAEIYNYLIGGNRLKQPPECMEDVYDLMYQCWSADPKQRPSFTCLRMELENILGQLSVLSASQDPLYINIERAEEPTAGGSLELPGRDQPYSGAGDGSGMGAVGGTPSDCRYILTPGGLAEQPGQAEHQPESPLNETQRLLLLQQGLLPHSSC
# [2] = target: T2, Tyrosine-protein kinase Mer (Homo sapiens) (UniProt Q12866); assay: Binding affinity to MERTK (571 to 864 residue) (unknown origin) expressed in Escherichia coli Rosetta cells assessed as change in melting temperature by SYPRO orange dye based DSF assay
# T2 sequence (whole entry): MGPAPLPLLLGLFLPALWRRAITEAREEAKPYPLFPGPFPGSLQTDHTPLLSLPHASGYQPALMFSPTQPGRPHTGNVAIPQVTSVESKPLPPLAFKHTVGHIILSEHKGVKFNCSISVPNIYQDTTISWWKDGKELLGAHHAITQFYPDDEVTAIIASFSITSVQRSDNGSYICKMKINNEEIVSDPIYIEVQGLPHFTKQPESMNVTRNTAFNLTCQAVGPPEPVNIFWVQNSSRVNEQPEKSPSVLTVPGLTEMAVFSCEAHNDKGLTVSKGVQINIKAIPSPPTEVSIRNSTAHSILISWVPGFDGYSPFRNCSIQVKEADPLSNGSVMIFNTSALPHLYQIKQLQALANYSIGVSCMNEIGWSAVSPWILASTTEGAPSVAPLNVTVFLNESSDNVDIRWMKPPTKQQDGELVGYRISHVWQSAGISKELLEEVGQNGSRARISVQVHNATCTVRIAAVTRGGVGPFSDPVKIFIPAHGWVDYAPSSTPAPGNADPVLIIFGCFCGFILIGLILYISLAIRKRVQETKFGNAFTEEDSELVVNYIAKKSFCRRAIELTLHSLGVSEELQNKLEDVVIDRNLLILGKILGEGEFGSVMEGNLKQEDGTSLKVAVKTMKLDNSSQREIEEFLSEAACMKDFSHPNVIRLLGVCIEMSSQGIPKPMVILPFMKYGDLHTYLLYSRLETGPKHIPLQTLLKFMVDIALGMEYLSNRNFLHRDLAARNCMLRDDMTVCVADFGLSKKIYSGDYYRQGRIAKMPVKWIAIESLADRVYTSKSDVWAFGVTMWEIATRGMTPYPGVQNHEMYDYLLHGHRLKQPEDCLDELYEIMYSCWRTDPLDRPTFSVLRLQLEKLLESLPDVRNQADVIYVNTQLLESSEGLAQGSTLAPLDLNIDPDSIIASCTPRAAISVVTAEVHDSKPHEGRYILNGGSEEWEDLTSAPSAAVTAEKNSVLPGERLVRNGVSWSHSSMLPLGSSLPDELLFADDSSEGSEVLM
# [3] = target: T3, Tyrosine-protein kinase ABL1 (Homo sapiens, UniProt P00519)
# Description: Binding affinity to non-phosphorylated ABL1 (unknown origin) assessed as change in melting temperature by SYPRO orange dye based DSF assay
# Homo sapiens = organism: Homo sapiens; assay: Binding affinity to MERTK-AXL mutant (unknown origin) expressed in Escherichia coli Rosetta cells assessed as change in melting temperature by SYPRO orange dye based DSF assay
# [4] = target: Casein kinase I isoform epsilon (Homo sapiens, UniProt P49674); assay: Binding affinity to CSNK1E (unknown origin) assessed as change in melting temperature by SYPRO orange dye based DSF assay
# [5] = target: T4, Peripheral plasma membrane protein CASK (Homo sapiens) (UniProt O14936)
# T4 sequence (whole entry): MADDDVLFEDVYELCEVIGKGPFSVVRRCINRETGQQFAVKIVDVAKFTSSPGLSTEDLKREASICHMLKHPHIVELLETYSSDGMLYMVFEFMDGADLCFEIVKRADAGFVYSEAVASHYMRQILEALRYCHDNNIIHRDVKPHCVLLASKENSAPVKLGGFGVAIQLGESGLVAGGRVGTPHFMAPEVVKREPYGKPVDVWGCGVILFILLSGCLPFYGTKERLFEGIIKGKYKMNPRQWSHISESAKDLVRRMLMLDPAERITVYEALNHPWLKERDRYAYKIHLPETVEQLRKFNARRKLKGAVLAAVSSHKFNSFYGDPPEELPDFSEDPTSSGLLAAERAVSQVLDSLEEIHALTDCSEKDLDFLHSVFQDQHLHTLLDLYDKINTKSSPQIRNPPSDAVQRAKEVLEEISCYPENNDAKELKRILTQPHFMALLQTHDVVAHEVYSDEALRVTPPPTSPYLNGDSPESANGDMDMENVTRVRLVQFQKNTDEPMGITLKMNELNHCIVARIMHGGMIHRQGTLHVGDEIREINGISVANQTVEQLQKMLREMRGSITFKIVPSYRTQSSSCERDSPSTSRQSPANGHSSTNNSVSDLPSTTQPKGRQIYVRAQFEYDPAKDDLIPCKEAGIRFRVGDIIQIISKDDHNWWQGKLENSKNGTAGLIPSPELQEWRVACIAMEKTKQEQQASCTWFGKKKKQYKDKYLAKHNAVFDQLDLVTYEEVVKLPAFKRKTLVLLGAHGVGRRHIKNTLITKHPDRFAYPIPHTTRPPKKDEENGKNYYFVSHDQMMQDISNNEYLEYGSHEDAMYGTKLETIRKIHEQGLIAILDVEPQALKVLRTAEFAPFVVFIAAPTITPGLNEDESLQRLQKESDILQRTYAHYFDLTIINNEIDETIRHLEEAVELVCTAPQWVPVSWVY
# Description: Binding affinity to recombinant N-terminal His-tagged CASK (1 to 337 residues) (unknown origin) expressed in Escherichia coli assessed as change in melting temperature by SYPRO orange dye based DSF assay
# [6] = target: T5, Tyrosine-protein kinase Mer (Homo sapiens, UniProt Q12866); assay: Inhibition of tracer K5 binding to NanoLuc-fused MERTK (unknown origin) expressed in HEK293T cells measured after 2 hrs by NanoBRET assay; assay type: cell-based
# T5 sequence (Q12866 whole entry): T2 sequence (whole entry)
# [7] = target: T6, Tyrosine-protein kinase receptor UFO (Homo sapiens, UniProt P30530); assay: Inhibition of tracer K5 binding to NanoLuc-fused AXL (unknown origin) expressed in HEK293T cells measured after 2 hrs by NanoBRET assay; assay type: cell-based
# T6 sequence (P30530 whole entry): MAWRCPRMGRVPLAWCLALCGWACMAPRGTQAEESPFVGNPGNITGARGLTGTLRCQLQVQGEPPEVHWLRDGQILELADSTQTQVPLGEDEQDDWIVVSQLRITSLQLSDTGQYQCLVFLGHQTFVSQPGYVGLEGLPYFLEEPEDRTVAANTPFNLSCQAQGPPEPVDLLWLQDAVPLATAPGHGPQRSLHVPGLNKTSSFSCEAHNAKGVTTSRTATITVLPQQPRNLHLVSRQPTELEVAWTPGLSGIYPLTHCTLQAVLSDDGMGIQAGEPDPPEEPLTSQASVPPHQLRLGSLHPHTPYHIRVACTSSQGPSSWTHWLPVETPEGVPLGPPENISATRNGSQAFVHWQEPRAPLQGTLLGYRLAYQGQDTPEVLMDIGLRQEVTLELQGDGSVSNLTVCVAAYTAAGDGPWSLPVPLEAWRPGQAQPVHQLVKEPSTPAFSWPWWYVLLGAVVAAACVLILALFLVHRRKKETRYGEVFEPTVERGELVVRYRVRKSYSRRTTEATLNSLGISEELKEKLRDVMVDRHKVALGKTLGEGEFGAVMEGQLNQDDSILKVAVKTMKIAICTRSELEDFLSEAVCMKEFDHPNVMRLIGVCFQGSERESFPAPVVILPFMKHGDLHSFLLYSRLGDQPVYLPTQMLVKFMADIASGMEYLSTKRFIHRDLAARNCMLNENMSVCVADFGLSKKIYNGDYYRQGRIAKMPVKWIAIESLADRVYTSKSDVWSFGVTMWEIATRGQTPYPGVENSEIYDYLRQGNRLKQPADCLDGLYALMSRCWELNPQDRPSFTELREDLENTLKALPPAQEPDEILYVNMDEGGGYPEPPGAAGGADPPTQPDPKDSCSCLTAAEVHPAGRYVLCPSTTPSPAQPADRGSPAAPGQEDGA
# [8] = target: T3, Tyrosine-protein kinase ABL1; assay: Inhibition of tracer K5 binding to NanoLuc-fused ABL1 (unknown origin) expressed in HEK293T cells measured after 2 hrs by NanoBRET assay; assay type: cell-based
# Chain of Casein kinase I isoform epsilon (P49674 whole entry, looked up, canonical isoform): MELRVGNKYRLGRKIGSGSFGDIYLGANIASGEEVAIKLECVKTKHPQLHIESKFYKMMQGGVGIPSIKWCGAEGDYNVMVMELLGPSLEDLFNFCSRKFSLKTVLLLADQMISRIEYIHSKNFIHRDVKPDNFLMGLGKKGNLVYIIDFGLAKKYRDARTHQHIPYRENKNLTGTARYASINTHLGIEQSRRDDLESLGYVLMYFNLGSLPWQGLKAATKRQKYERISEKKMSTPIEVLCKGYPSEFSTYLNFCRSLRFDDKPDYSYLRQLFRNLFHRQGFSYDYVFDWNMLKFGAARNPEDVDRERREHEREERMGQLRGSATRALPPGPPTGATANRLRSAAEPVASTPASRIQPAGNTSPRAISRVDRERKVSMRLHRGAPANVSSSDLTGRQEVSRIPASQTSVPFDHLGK
# T3 sequence (P00519 whole entry): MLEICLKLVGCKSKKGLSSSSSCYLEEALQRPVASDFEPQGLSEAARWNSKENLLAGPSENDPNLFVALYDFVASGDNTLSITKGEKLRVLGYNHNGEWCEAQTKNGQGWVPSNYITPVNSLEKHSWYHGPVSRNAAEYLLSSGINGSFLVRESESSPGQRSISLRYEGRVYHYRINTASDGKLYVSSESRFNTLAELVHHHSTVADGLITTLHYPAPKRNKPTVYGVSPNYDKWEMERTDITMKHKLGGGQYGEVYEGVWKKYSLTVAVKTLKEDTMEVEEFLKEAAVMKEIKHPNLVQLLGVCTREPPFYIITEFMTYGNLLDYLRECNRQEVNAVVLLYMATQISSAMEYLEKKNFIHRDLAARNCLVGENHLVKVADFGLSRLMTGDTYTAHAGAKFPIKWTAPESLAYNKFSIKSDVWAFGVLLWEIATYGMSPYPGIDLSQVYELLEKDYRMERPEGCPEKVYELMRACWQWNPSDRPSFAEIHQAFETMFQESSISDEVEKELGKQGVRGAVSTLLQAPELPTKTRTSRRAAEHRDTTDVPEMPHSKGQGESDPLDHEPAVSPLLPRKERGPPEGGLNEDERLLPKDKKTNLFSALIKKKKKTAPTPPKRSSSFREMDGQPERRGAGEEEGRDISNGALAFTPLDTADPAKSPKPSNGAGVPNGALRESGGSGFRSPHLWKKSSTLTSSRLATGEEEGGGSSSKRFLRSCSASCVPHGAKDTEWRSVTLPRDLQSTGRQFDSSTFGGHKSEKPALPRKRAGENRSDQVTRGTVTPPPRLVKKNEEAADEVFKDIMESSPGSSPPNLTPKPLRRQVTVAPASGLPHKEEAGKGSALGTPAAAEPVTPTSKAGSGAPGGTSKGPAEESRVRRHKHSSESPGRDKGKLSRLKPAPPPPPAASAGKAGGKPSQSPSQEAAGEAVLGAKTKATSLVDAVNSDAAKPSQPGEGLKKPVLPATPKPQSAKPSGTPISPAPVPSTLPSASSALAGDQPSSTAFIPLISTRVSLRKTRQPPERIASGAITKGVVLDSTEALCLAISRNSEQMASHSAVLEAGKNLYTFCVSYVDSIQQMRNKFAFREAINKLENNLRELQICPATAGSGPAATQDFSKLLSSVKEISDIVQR
SMILES,IC50 [1] [µM],deltaTm [2] [K],deltaTm [3] [K],deltaTm (Homo sapiens) [K],deltaTm [4] [K],deltaTm [5] [K],IC50 [6] [µM],IC50 [7] [µM],IC50 [8] [µM]
CCN(Cc1ccccc1)c1ncc(C(=O)NCCCN2CCCC2=O)c(NC2CCCC2)n1,> 10,–,–,–,–,–,–,–,–
O=C(NCCCN1CCCC1=O)c1cnc(NCc2cc(Br)ccc2Br)nc1NC1CCCC1,–,-0.7,6.3,0.2,4.4,–,–,–,–
O=C(NCCCN1CCCC1=O)c1cnc(NCc2cc(Cl)ccc2Cl)nc1NC1CC1,–,-0.4,4.9,-0.2,4,1.4,–,–,–
O=C(NCCCN1CCOC1=O)c1cnc(NCc2cc(Br)ccc2Br)nc1NC1CCCC1,–,-0.6,6,0.2,3.6,5.1,–,–,–
O=C(NCCCN1CCCC1=O)c1cnc(NCc2ccc(Br)cc2)nc1NC1CCCC1,–,-0.1,6.8,0,2.2,1.2,–,–,–
O=C(NCCCN1CCCC1=O)c1cnc(NCc2cc(F)ccc2F)nc1NC1CCCC1,–,0.6,6.1,0.3,5.9,–,4.48,–,–
CN[C@@H]1C[C@H]2O[C@@](C)([C@@H]1OC)n1c3ccccc3c3c4c(c5c6ccccc6n2c5c31)C(=O)NC4,–,4.8,–,–,2.3,–,–,–,–
O=C(NCCCN1CCCC1=O)c1cnc(NCc2ccccc2)nc1NC1CCCC1,–,0.5,4.5,0.4,4.3,0.8,–,–,–
O=C(NCCCN1CCCC1=O)c1cnc(NCc2cc(Cl)ccc2Cl)nc1NC1CCCC1,–,-0.7,6,-0.2,4.8,–,–,–,–
O=C(NCCCN1CCCC1=O)c1cnc(NCc2ccccc2Br)nc1NC1CCCC1,–,-0.5,7,-0.1,4.4,4.8,–,–,–
Cc1ccc(CNc2ncc(C(=O)NCCCN3CCOC3=O)c(NC3CCCC3)n2)c(Br)c1,–,-0.2,5.8,-0.1,0.1,6.1,–,–,–
O=C(NCCCN1CCCC1=O)c1cnc(NCc2ccccc2Cl)nc1NC1CCCC1,–,-0.1,5.9,-0.2,4.8,3.3,–,–,–
O=C(NCCCN1CCCC1=O)c1cnc(NCc2cc(Cl)ccc2Cl)nc1NC1CCCCC1,–,-0.2,7.7,0.1,5,5.7,–,–,–
O=C(NCCCN1CCCC1=O)c1cnc(NCc2cc(Cl)ccc2Cl)nc1Nc1ccccc1,–,-0.7,2.9,-0.3,3.6,1.4,–,–,–
O=C(NCCCN1CCCC1=O)c1cnc(NCc2ccc(Cl)cc2Cl)nc1NC1CCCC1,> 10,0.1,2.3,0,2.1,–,> 10,> 10,> 10
O=C(NCCCN1CCCC1=O)c1cnc(NCc2cccc(Br)c2)nc1NC1CCCC1,–,0.6,6.9,0.3,6.5,3.8,–,–,–
Cc1ccc(CNc2ncc(C(=O)NCCCN3CCOC3=O)c(NC3CCCCC3)n2)c(Br)c1,–,0.7,6.2,-0.1,1.5,6,–,–,–
COc1ccc(OC)c(CNc2ncc(C(=O)NCCCN3CCCC3=O)c(NC3CCCC3)n2)c1,–,-0.5,0.7,-0.2,0.4,0.8,–,–,–
